Source: PubChem BioAssay (NCI)
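Cells were grown in 96-well plates and exposed to each compound for 48 hours at five concentrations; endpoints were interpolated linearly between bracketing concentrations, or set to the highest concentration if not reached. GI50 marks 50% less growth. TGI: total growth inhibition.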

Tests used:
Assay in all cases: NCI anticancer screen, dose series, 48 h
NCI-H522 lung = test system: NCI-H522 lung
SN12C renal = test system: SN12C renal
SW-620 colon = test system: SW-620 colon
HL-60(TB) leukemia = test system: HL-60(TB) leukemia
LOX IMVI melanoma = test system: LOX IMVI melanoma
786-0 renal = test system: 786-0 renal
BT-549 breast = test system: BT-549 breast
DU-145 prostate = test system: DU-145 prostate
T-47D breast = test system: T-47D breast
HS 578T breast = test system: HS 578T breast

Row | SMILES | TGI (NCI-H522 lung) | TGI (SN12C renal) | TGI (SW-620 colon) | TGI (HL-60(TB) leukemia) | TGI (LOX IMVI melanoma) | TGI (786-0 renal) | TGI (BT-549 breast) | TGI (DU-145 prostate) | TGI (T-47D breast) | GI50 (NCI-H522 lung) | GI50 (SN12C renal) | GI50 (SW-620 colon) | GI50 (HL-60(TB) leukemia) | GI50 (LOX IMVI melanoma) | GI50 (HS 578T breast) | TGI (HS 578T breast) | GI50 (786-0 renal) | GI50 (DU-145 prostate) | GI50 (T-47D breast) | GI50 (BT-549 breast)
1 | COc1c(C)c(O)c2c(c1C)OC(c1ccccc1)CC2=O (stereo not drawn) | > 100 µM | > 100 µM | > 100 µM | 90.5 µM | > 100 µM | > 100 µM |  |  |  |  |  |  |  |  |  |  |  |  |  | 
2 | ClCCCCOC1CCCCO1 (stereo not drawn) | > 100 µM | > 100 µM | > 100 µM | > 100 µM |  | > 100 µM |  |  |  |  |  |  |  |  |  |  |  |  |  | 
3 | NC(=O)c1cc([N+](=O)[O-])cc([N+](=O)[O-])c1 | > 100 µM | > 100 µM | > 100 µM | > 100 µM | > 100 µM | > 100 µM |  |  |  |  |  |  |  |  |  |  |  |  |  | 
4 | Cn1cnc([N+](=O)[O-])c1Sc1nc2ccc([N+](=O)[O-])cc2[nH]1 |  |  | > 100 µM | > 100 µM | 60.1 µM | > 100 µM |  |  |  |  |  |  |  |  |  |  |  |  |  | 
5 | O=C(O)COc1ccc(C(=O)/C(SS/C(C(=O)c2ccc(OCC(=O)O)c(Cl)c2Cl)=C2\C=C(c3ccccc3Cl)SS2)=C2/C=C(c3ccccc3Cl)SS2)c(Cl)c1Cl | 11.3 µM | > 100 µM | > 56.5 µM | 7.01 µM | 28.5 µM | 36.7 µM |  |  |  |  |  |  |  |  |  |  |  |  |  | 
6 | c1ccc2c(c1)N=C(c1ccc3ccccc3c1)CC(c1cccc3ccccc13)S2 (stereo not drawn) | 75.4 µM | > 100 µM | > 100 µM | 47.1 µM | > 100 µM | > 100 µM |  |  |  |  |  |  |  |  |  |  |  |  |  | 
7 | CC1(C)OC(=O)C(=Cc2ccc([N+](=O)[O-])s2)C(=O)O1 |  | 31.6 µM | 4.1 µM | 5.59 µM | 32.6 µM | 32.2 µM | 26.8 µM | 30.9 µM | 38 µM |  |  |  |  |  |  |  |  |  |  | 
8 | Nc1nc2ncn(CC(O)COC(=O)c3ccccc3)c2c(=O)[nH]1 (stereo not drawn) | > 100 µM | > 100 µM | > 100 µM | > 100 µM | > 100 µM | > 100 µM |  |  |  |  |  |  |  |  |  |  |  |  |  | 
9 | O=C1N=C(Nc2nc(-c3csc(NC4=NC(=O)/C(=C\c5ccc(Cl)cc5)S4)n3)cs2)S/C1=C/c1ccc(Cl)cc1 | > 50 µM | 33.7 µM | > 50 µM | 33.8 µM | > 50 µM | 12 µM |  | > 50 µM | > 50 µM | 24.7 µM | 7.85 µM | 39 µM | 12.6 µM | 8.34 µM | > 50 µM | > 50 µM | 1.6 µM | 17 µM | 18.8 µM | 
10 | N=C1C(c2nc3ccccc3s2)=C(O)CN1c1cc(Cl)cc(Cl)c1 |  | > 100 µM | > 100 µM | > 100 µM | > 100 µM | > 100 µM | > 100 µM | > 100 µM | > 100 µM |  | > 100 µM | > 100 µM | > 100 µM | > 100 µM | 16.1 µM | 64.8 µM | 88.7 µM | > 100 µM | > 100 µM | > 100 µM
11 | NC(=O)c1ncn(Cc2ccccc2)c1CNC(N)=S |  | > 100 µM | > 100 µM | > 100 µM | > 100 µM | > 100 µM |  |  |  |  |  |  |  |  |  |  |  |  |  | 
12 | CCCCCCCCCCCC(=O)OC(COC(N)=O)COc1ccc(Cl)cc1 (stereo not drawn) | 31.5 µM | 70 µM | 63 µM | 33.3 µM | 55 µM | > 100 µM |  |  |  |  |  |  |  |  |  |  |  |  |  | 
13 | CC1CC(c2ccc(Cl)c(Cl)c2)=Nc2ccccc2S1 (stereo not drawn) | > 100 µM | > 100 µM | > 100 µM | > 100 µM | > 100 µM | > 100 µM |  |  |  |  |  |  |  |  |  |  |  |  |  | 
14 | C#Cc1ccc(-n2c(/C=C/c3ccc4ccccc4c3)nc3ncccc3c2=O)cc1 | > 100 µM | > 100 µM |  | 8.83 µM | 3.11 µM | > 100 µM | 5.45 µM | > 100 µM | > 100 µM | 5.11 µM | 3.29 µM |  | 1.66 µM | 0.517 µM | 7.62 µM | > 100 µM | 4.08 µM | 7.45 µM | 3.9 µM | 1.98 µM
15 | CN1CCc2cc3c4cc2C1Cc1ccc(cc1)Oc1cc(ccc1O)CC1c2c(cc(O)c(c2O4)O3)CCN1C (stereo not drawn) | 11.1 µM | 14.8 µM | 7.46 µM | 41.6 µM | 3.23 µM | 10.9 µM |  |  |  |  |  |  |  |  |  |  |  |  |  | 
16 | N#Cc1c(N)c(C#N)c2c(c1-c1ccc(Cl)cc1)COc1ccc(F)cc1-2 | 14.5 µM | > 50 µM | > 50 µM | > 50 µM | > 50 µM | > 50 µM |  | > 50 µM | > 50 µM | 2.75 µM | > 50 µM | 22.5 µM | > 50 µM | 43.9 µM |  |  | 20 µM | 14.7 µM | > 50 µM | 
17 | Cc1c(O)c(Br)c(C)c(O)c1Br (tested in a mixture with another compound) |  |  | 6.83 µM | 3.22 µM | 3.44 µM | 3.2 µM | 9.7 µM | 5.15 µM | 5.54 µM |  |  |  |  |  |  | 19.9 µM |  |  |  | 
18 | O=C(CSc1ncc(-c2ccccc2)n1-c1ccccc1)Nc1ccc(-c2nc3ccccc3s2)cc1 | > 100 µM | > 100 µM |  | > 100 µM | > 100 µM | > 100 µM |  |  | > 100 µM | 8.11 µM | 71.5 µM |  | > 100 µM | 5.31 µM | 4.89 µM | 80.8 µM | 5.34 µM |  | 4.51 µM | 
19 | NCC1(N2CCOCC2)C2CCCC21CNc1ccccc1 (stereo not drawn) | > 100 µM | > 100 µM | > 100 µM | > 100 µM | > 100 µM | > 100 µM |  |  |  |  |  |  |  |  |  |  |  |  |  | 
20 | CCCCC(C(=O)CCC(=O)Nc1ccc(Cl)cc1)C(=O)C(C)C (stereo not drawn) | > 100 µM | > 100 µM | > 100 µM | > 100 µM | > 100 µM | > 100 µM |  |  |  |  |  |  |  |  |  |  |  |  |  | 
21 | COC(=O)C1(O)c2ccccc2N=C2C1CCN2C (stereo not drawn) | > 100 µM | > 100 µM | > 100 µM | > 100 µM | > 100 µM | > 100 µM |  |  |  |  |  |  |  |  |  |  |  |  |  | 
22 | COC(CC1(OC)OC(=O)C=C1N)OC (stereo not drawn) | > 100 µM | > 100 µM | > 100 µM | > 100 µM | > 100 µM | > 100 µM |  |  |  |  |  |  |  |  |  |  |  |  |  | 
23 | O=c1c2cc(O)c(O)cc2oc2cc(O)c(C3OC(CO)C(O)C(O)C3O)c(O)c12 (stereo not drawn) | > 100 µM |  | > 100 µM | > 100 µM | > 100 µM | > 100 µM | > 100 µM |  | > 100 µM |  |  |  |  |  |  | > 100 µM |  |  |  | 
24 | Cc1ccc2nc3c(C)cc(=O)cc-3sc2c1 | 45.1 µM | 48.8 µM | 31.1 µM | 25.2 µM |  | 35.4 µM |  |  |  |  |  |  |  |  |  |  |  |  |  | 
25 | Cc1ccc(S(=O)(=O)CC2(Br)CCc3ccccc3C2=O)cc1 (stereo not drawn) | 32.7 µM | > 100 µM | > 100 µM | 87.3 µM | > 100 µM | > 100 µM | 41.1 µM | > 100 µM |  |  |  |  |  |  |  | > 100 µM |  |  |  | 
